The results in this text go back to patent US8785452B2, “Anti-infective compounds” (priority 2008, dated 2014).

A word on the inhibition: it is the drop in the measured response relative to a control, in per cent.

Each structure is given as a SMILES string.

The test system of one assay is M. tuberculosis H37Rv-GFP. The assay can be described thus: microbe, parasite or virus in culture. The assay is classed as cell-based, Mycobacterium tuberculosis. Conditions: Mycobacterium tuberculosis, H37RV, Macrophage; confirmation, 0.2 uM, intracellular; read-out: QIM Confirm % Inhibition 0.2 uM.
For `O=[N+]([O-])c1cc(C(F)(F)F)cc([N+](=O)[O-])c1Sc1nc(-c2ccccc2)c[nH]1` [IPK 000 001 32], the inhibition at 0.2 µM worked out at 10.3%.
On to `CCCSc1nnc(-c2ccc(Cl)cc2Cl)o1` [IPK 000 024 43], for which the inhibition at 0.2 µM amounted to 50.4%.
For `O=C(N/N=C/C=C/c1ccccc1)c1ccncc1` [IPK 000 013 68], the inhibition at 0.2 µM worked out at 50.9%.
In the case of `CC(C)(C)C(=O)Nc1ccccc1C(=O)N1CCOCC1` [IPK 000 021 87], the inhibition at 0.2 µM came out at 15.4%.
As for `C/C(=N\NOCc1cc([N+](=O)[O-])cc([N+](=O)[O-])c1)c1ccccc1` [IPK 000 035 56], the inhibition at 0.2 µM is 9.1%.

The assay is the same for the next values; noted with them: Mycobacterium tuberculosis, H37RV, Macrophage; confirmation, 2 uM, intracellular; read-out: QIM Confirm % Inhibition 2 uM.
As to `O=[N+]([O-])c1cc(C(F)(F)F)cc([N+](=O)[O-])c1Sc1nc(-c2ccccc2)c[nH]1` [IPK 000 001 32], the inhibition at 2 µM was 0.2%.
In the case of `CCCSc1nnc(-c2ccc(Cl)cc2Cl)o1` [IPK 000 024 43], the inhibition at 2 µM is 58.3%.
On to `O=C(N/N=C/C=C/c1ccccc1)c1ccncc1` [IPK 000 013 68], for which the inhibition at 2 µM worked out at 102%.
Still for that read-out and setting: under `CC(C)(C)C(=O)Nc1ccccc1C(=O)N1CCOCC1` [IPK 000 021 87] stands 29.8%.
As for `C/C(=N\NOCc1cc([N+](=O)[O-])cc([N+](=O)[O-])c1)c1ccccc1` [IPK 000 035 56], the inhibition at 2 µM worked out at 18.8%.

Still in this assay, the particulars now being: Mycobacterium tuberculosis, H37RV, Macrophage; confirmation, 20 uM; read-out: QIM Confirm % Inhibition 20 uM.
Consider `O=[N+]([O-])c1cc(C(F)(F)F)cc([N+](=O)[O-])c1Sc1nc(-c2ccccc2)c[nH]1` [IPK 000 001 32], for which the inhibition at 20 µM was determined as 50.7%.
`CCCSc1nnc(-c2ccc(Cl)cc2Cl)o1` [IPK 000 024 43]: the inhibition at 20 µM was found to be 59.1%.
Consider `O=C(N/N=C/C=C/c1ccccc1)c1ccncc1` [IPK 000 013 68], for which the inhibition at 20 µM was determined as 67.2%.
The same measure, in the same setting: under `CC(C)(C)C(=O)Nc1ccccc1C(=O)N1CCOCC1` [IPK 000 021 87] stands 96.5%; under `C/C(=N\NOCc1cc([N+](=O)[O-])cc([N+](=O)[O-])c1)c1ccccc1` [IPK 000 035 56], 89%.

The same assay, now with this note: Mycobacterium tuberculosis, H37RV, Macrophage; primary screen, 20 μM; read-out: Primary QIM % Inhibition.
In the case of `O=[N+]([O-])c1cc(C(F)(F)F)cc([N+](=O)[O-])c1Sc1nc(-c2ccccc2)c[nH]1` [IPK 000 001 32], the inhibition at 20 µM was found to be 25.4%.
For the molecule `CCCSc1nnc(-c2ccc(Cl)cc2Cl)o1` [IPK 000 024 43], the inhibition at 20 µM is 5.8%.
On to `O=C(N/N=C/C=C/c1ccccc1)c1ccncc1` [IPK 000 013 68], for which the inhibition at 20 µM is 65%.
For `CC(C)(C)C(=O)Nc1ccccc1C(=O)N1CCOCC1` [IPK 000 021 87], the inhibition at 20 µM was 90.2%.
As for `C/C(=N\NOCc1cc([N+](=O)[O-])cc([N+](=O)[O-])c1)c1ccccc1` [IPK 000 035 56], the inhibition at 20 µM is 83.3%.

Another assay relates to M. tuberculosis H37Rv-GFP. The assay can be described thus: microbe, parasite or virus in culture. The format is cell-based. Conditions: Mycobacterium tuberculosis, read-out: QUM Confirm % Inhibition 0.2 uM.
Regarding `O=[N+]([O-])c1cc(C(F)(F)F)cc([N+](=O)[O-])c1Sc1nc(-c2ccccc2)c[nH]1` [IPK 000 001 32], the inhibition at 0.2 µM was 43.9%.
Take `CCCSc1nnc(-c2ccc(Cl)cc2Cl)o1` [IPK 000 024 43]: the inhibition at 0.2 µM was determined as 34.7%.
In the case of `O=C(N/N=C/C=C/c1ccccc1)c1ccncc1` [IPK 000 013 68], the inhibition at 0.2 µM worked out at 50.4%.
Consider `CC(C)(C)C(=O)Nc1ccccc1C(=O)N1CCOCC1` [IPK 000 021 87], for which the inhibition at 0.2 µM turned out to be 49.1%.
As to `C/C(=N\NOCc1cc([N+](=O)[O-])cc([N+](=O)[O-])c1)c1ccccc1` [IPK 000 035 56], the inhibition at 0.2 µM was 41.5%.

The assay is the same for the next values; noted with them: Mycobacterium tuberculosis, read-out: QUM Confirm % Inhibition 2 uM.
With `O=[N+]([O-])c1cc(C(F)(F)F)cc([N+](=O)[O-])c1Sc1nc(-c2ccccc2)c[nH]1` [IPK 000 001 32], the inhibition at 2 µM was 41.2%.
The same measure, in the same setting: under `CCCSc1nnc(-c2ccc(Cl)cc2Cl)o1` [IPK 000 024 43] stands 40.1%; under `O=C(N/N=C/C=C/c1ccccc1)c1ccncc1` [IPK 000 013 68], 77.1%; under `CC(C)(C)C(=O)Nc1ccccc1C(=O)N1CCOCC1` [IPK 000 021 87], 42.9%.
`C/C(=N\NOCc1cc([N+](=O)[O-])cc([N+](=O)[O-])c1)c1ccccc1` [IPK 000 035 56]: the inhibition at 2 µM turned out to be 39.6%.

The same assay, now with this note: Mycobacterium tuberculosis, read-out: QUM Confirm % Inhibition 20 uM.
On to `O=[N+]([O-])c1cc(C(F)(F)F)cc([N+](=O)[O-])c1Sc1nc(-c2ccccc2)c[nH]1` [IPK 000 001 32], for which the inhibition at 20 µM is 89.1%.
On to `CCCSc1nnc(-c2ccc(Cl)cc2Cl)o1` [IPK 000 024 43], for which the inhibition at 20 µM stood at 67.7%.
On the same count and under the same terms, to `O=C(N/N=C/C=C/c1ccccc1)c1ccncc1` [IPK 000 013 68] belongs 77.6%; to `CC(C)(C)C(=O)Nc1ccccc1C(=O)N1CCOCC1` [IPK 000 021 87], 41.9%.
For the molecule `C/C(=N\NOCc1cc([N+](=O)[O-])cc([N+](=O)[O-])c1)c1ccccc1` [IPK 000 035 56], the inhibition at 20 µM turned out to be 65.6%.

The next assay has as its system Raw264.7 cells. The assay can be described thus: Cell number (CellNb) from image analysis of the phenotypic cell-based assay. Particulars: confirmation, 0.2 uM.
For the molecule `O=[N+]([O-])c1cc(C(F)(F)F)cc([N+](=O)[O-])c1Sc1nc(-c2ccccc2)c[nH]1` [IPK 000 001 32], the “QIM Confirm CellNb 0.2 uM” value turned out to be 241.4.
The same measure, in the same setting: under `CCCSc1nnc(-c2ccc(Cl)cc2Cl)o1` [IPK 000 024 43] stands 352.1; under `O=C(N/N=C/C=C/c1ccccc1)c1ccncc1` [IPK 000 013 68], 400.1.
On the same count and under the same terms, to `CC(C)(C)C(=O)Nc1ccccc1C(=O)N1CCOCC1` [IPK 000 021 87] belongs 305.3.
The same measure, in the same setting: to `C/C(=N\NOCc1cc([N+](=O)[O-])cc([N+](=O)[O-])c1)c1ccccc1` [IPK 000 035 56] belongs 247.1.

The same assay, now with this note: confirmation, 2 uM.
Turning to `O=[N+]([O-])c1cc(C(F)(F)F)cc([N+](=O)[O-])c1Sc1nc(-c2ccccc2)c[nH]1` [IPK 000 001 32], the “QIM Confirm CellNb 2 uM” value is 208.5.
Take `CCCSc1nnc(-c2ccc(Cl)cc2Cl)o1` [IPK 000 024 43]: the “QIM Confirm CellNb 2 uM” value was found to be 349.0.
With `O=C(N/N=C/C=C/c1ccccc1)c1ccncc1` [IPK 000 013 68], the “QIM Confirm CellNb 2 uM” value stood at 528.8.
Same read-out and setting: under `CC(C)(C)C(=O)Nc1ccccc1C(=O)N1CCOCC1` [IPK 000 021 87] stands 403.4.
On to `C/C(=N\NOCc1cc([N+](=O)[O-])cc([N+](=O)[O-])c1)c1ccccc1` [IPK 000 035 56], for which the “QIM Confirm CellNb 2 uM” value amounted to 313.1.

The same assay, now with this note: confirmation, 20 uM.
For the molecule `O=[N+]([O-])c1cc(C(F)(F)F)cc([N+](=O)[O-])c1Sc1nc(-c2ccccc2)c[nH]1` [IPK 000 001 32], the “QIM Confirm CellNb 20 uM” value is 113.8.
Same read-out and setting: under `CCCSc1nnc(-c2ccc(Cl)cc2Cl)o1` [IPK 000 024 43] stands 205.0; under `O=C(N/N=C/C=C/c1ccccc1)c1ccncc1` [IPK 000 013 68], 438.8.
In the case of `CC(C)(C)C(=O)Nc1ccccc1C(=O)N1CCOCC1` [IPK 000 021 87], the “QIM Confirm CellNb 20 uM” value was determined as 609.0.
Turning to `C/C(=N\NOCc1cc([N+](=O)[O-])cc([N+](=O)[O-])c1)c1ccccc1` [IPK 000 035 56], the “QIM Confirm CellNb 20 uM” value is reported as 524.3.

Staying with this assay, now noted: primary screen, 20 μM.
For `O=[N+]([O-])c1cc(C(F)(F)F)cc([N+](=O)[O-])c1Sc1nc(-c2ccccc2)c[nH]1` [IPK 000 001 32], the “Primary QIM CellNb” value is reported as 88.3.
`CCCSc1nnc(-c2ccc(Cl)cc2Cl)o1` [IPK 000 024 43]: the “Primary QIM CellNb” value is 203.8.
As to `O=C(N/N=C/C=C/c1ccccc1)c1ccncc1` [IPK 000 013 68], the “Primary QIM CellNb” value was determined as 276.3.
On the same count and under the same terms, to `CC(C)(C)C(=O)Nc1ccccc1C(=O)N1CCOCC1` [IPK 000 021 87] belongs 405.0; to `C/C(=N\NOCc1cc([N+](=O)[O-])cc([N+](=O)[O-])c1)c1ccccc1` [IPK 000 035 56], 266.0.
